Experimental findings from US20100260697A1, “Composition Containing An Extract of the Fruit of Schisandra Chinensis and Process for Producing Same” (COGNIS FRANCE S.A.S., priority 2003, published 2010) are described below.

One experiment concerns human fibroblasts. Nature of the experiment: Protection of human fibroblasts against UV-A radiation (released MDA, cellular proteins). It is filed as cell-based. Conditions: % versus non-irradiated control; UV-A 20 J/cm2; dose 0.0003 % w/v. On the procedure: The aim of this test is to evaluate the capacities against oxidative stress of the extract by a test on a cell culture of human fibroblasts in vitro. This test in vitro evaluates the capacities of cytophotoprotection of human fibroblasts against UV-A radiation. […] The formed lipoperoxydes split in malondialdehyde responsible of the reticulation of many biological molecules such as proteins (inhibition of enzymes) and nucleic bases (mutagenesis).
The fibroblasts were seeded in a defined culture medium with foetal calf serum (FCS). […] At the end of the irradiation, the level of MDA (malondialdehyde) was measured in the supernatant by a chemical reaction of MDA with thiobarbituric acid which produces a coloured compound the concentration of which was determined by measuring optical density and the level of proteins was measured in the cell homogenate by Bradford's method. Bradford's method is a known method to quantify the level of proteins (Bradford M M., A rapid and sensitive method for the quantification of microgram quantities of protein utilizing the principle of protein-dye binding. Anal. Biochem., Vol 72, pages 248 to 254, 1976).
The results are expressed as % versus the irradiated control or MDA, and the non-irradiated control for proteins then as an average value of 2 tests in triplicate: […]

A further experiment concerns melanocytes B16. The experiment can be described thus: Inhibition of melanin synthesis; whitening activity on melanocytes B16. It is filed as cell-based. Conditions: for Melanin / Proteins: % against control, 3 days. As for the experimental part:
The whitening activity of the extract was evaluated on a cell line of melanocytes (melanocytes B16 were used; this is a cell line known to the skilled person in the art). The melanocytes were exposed to the extract for 3 days at 37° C. and then the melanocytes were homogenised in 1 n NaOH and the level of melanin was evaluated by measuring the optical density at 475 nm. The level of proteins in the cells was determined by Bradford's method.
The results are expressed in % refering of the control and the whitening potential is characterised by the ratio of melanin level by the protein level (or melanin/protein) for a non toxic concentration of the tested compound.

“And” between values parts separate entries of the source, which are not always exact repeats. Equal values may be shown once.

vitamin E: the “Cellular Proteins” value in the experiment on human fibroblasts was 110% and 96%.

Take `O=c1cc(CO)occ1O` [Kojic acid]: in the experiment with melanocytes B16 (dose 0.03 % w/v), the Melanin is 26%, the Proteins is 89% and the “Index = Proteins/Melanin” value turned out to be 3.37.

On to `OC[C@H]1O[C@@H](Oc2ccc(O)cc2)[C@H](O)[C@@H](O)[C@@H]1O` [Arbutin], for which, in the experiment with melanocytes B16 (dose 0.2 % w/v), the Melanin stood at 54%, the Proteins is 86% and the “Index = Proteins/Melanin” value came out at 1.60.
